Measured values reported in US8476031B2, “Methods for protein labeling based on acyl carrier protein” (priority 2003, dated 2013).

Legend:
[1] = target: T1, ACP-NK1 fusion protein displayed on HEK293 cells (UniProt P0A6A8+P24224+P25103); assay: Labeling of ACP-NK1 fusion protein displayed on HEK293 cells (confocal fluorescence microscopy); assay type: cell-based; details: 5 μM CoA substrate, 1 μM 6xHis-AcpS, 10 min RT; CoA-Bt followed by Streptavidin-Cy5; no staining of non-transfected cells
T1 construct: FLAG tag (C); 6xHis tag (C); expressed in transfected cells; host or cells: HEK293 (transient, pCEP4 vector)
T1 sequence (P0A6A8+P25103 fused, one chain of several): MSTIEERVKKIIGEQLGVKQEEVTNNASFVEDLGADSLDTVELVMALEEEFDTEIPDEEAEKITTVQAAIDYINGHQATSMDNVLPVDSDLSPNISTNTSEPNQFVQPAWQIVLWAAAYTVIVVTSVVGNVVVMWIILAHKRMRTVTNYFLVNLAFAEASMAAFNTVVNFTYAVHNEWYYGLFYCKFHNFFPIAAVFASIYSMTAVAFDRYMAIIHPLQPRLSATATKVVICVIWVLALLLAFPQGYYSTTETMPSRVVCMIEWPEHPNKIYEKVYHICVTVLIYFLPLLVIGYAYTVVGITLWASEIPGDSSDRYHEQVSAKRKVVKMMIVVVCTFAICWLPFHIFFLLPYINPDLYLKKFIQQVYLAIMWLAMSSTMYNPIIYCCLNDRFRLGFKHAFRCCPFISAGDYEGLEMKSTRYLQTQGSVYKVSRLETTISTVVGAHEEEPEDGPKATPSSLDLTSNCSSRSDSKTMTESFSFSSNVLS
Procedure: For the transient expression of ACP-NK1, the signal sequence of the 5-HT3-receptor (Sig5HT3) is fused to the N terminus of ACP via a short DYV linker and NK1 is fused to the C terminus of ACP via a short TS linker. In the resulting construct, a FLAG tag and a 6xHis tag is also attached to the C terminus of NK1. The corresponding gene of the fusion protein is inserted into the NheI and BamHI sites of the vector pCEP4 (Invitrogen). HEK293 cells are grown in DMEM/F2 (Dulbecco's modified Eagle medium, GIBCO BRL) supplemented with […] fetal calf serum (GIBCO, BRL). Transient transfection is performed as described (Nat Biotechnol 21, 86-89 (2003)) and the HEK293 cells are co-transfected with vectors expressing ACP-NK1 and a nuclear targeted EGEP (EGFP-NLS3). After 24 h, cells are incubated for 10 min at room temperature with 500 μl of PBS buffer containing MgCl2 (10 mM), 6xHis-AcpS (1 μM) and either CoA-Cy3, CoA-Cy5 or CoA-Bt (each 5 μM). The cells are then washed three times with PBS to remove any excess substrate and directly analyzed by laser-scanning confocal fluorescence microscopy when labeled with Cy3 or Cy5. Biotinylated cells are incubated with FluoroLink™ Cy5-labeled streptavidin (Amersham Biosciences) at concentrations of 1 μg/ml in PBS before being washed three times with PBS. Laser-scanning confocal micographs are recorded using a 488 nm argon/krypton laser line; a 543 nm HeNe laser line or a 633 nm HeNe laser line on a Zeiss LSM 510 microscope (Carl Zeiss AG, Göttingen, Germany) with a 63× water (1.2 numerical aperture) objective. Scanning speed and laser intensity are adjusted to avoid photobleaching of the fluorescent probes, and damage or morphological changes of the cells. Fluorescence is analyzed in the channels sensitive to GFP and sensitive to the respective dye. […] The ACP-NK1 receptor transiently expressed in HE293 cells is co-stained in a further experiment with CoA-Cy5 and with tetramethylrhodamine-labeled substance P(SP-rho), the natural ligand of NK1.

6xHis-ACP = 6xHis-ACP (Escherichia coli, UniProt P0A6A8+P24224); assay: In vitro biotinylation of 6xHis-ACP using CoA-Bt and 6xHis-ACPS (Western blot); assay type: biochemical, E. coli; details: 6xHis-ACP 1 μM, 6xHis-ACPS 0.2 μM, CoA-Bt 5 μM; controls lacking components
Chain of 6xHis-ACP (P0A6A8 whole entry, looked up, one chain of several): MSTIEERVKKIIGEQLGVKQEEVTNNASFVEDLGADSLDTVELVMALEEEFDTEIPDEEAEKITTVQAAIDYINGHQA
Procedure: (A) Analysis of the reaction of 6xHis-ACP (1 μM), 6xHis-ACPS (0.2 μM) and CoA-Bt (5 μM). At indicated times (t) aliquots are removed from the reaction mixture and biotinylation of 6xHis-ACP probed by Western blotting using a streptavidin-peroxidase conjugate.
Purified 6xHis-ACP (1 μM) is incubated with 6xHis-ACPS (0.2 μM) and MgCl2 (10 mM) in reaction buffer (43 μl, 50 mM Tris Cl, pH 8.8) at room temperature. An aliquot of 7.5 μl is taken for analysis. CoA-Bt is added to a final concentration of 5 μM. Aliquots of 7.5 μl are taken at defined times. The aliquots are quenched for 30 seconds with coenzyme A (1 mM final concentration), and 8.2 μl SDS-buffer 2× are added. The samples are heated for 2 minutes at 95° C. The biotinylated 6xHis-ACP is detected by Western-blotting, using a streptavidin-horseradish peroxidase conjugate (NEN) and a chemiluminescent peroxidase substrate (Renaissance reagent plus, NEN). The western blot is analyzed using an image station (Kodak 440). As controls, samples containing each protein alone, and samples containing only one of the two proteins and CoA-Bt are also prepared and analyzed for biotinylation as above in order to check the background and to check the specificity of the reaction.

6xHis-ACPS = target: T2, 6xHis-ACPS (Escherichia coli, UniProt P24224); assay: Competition assay between CoA and CoA-label as ACPS substrates; assay type: biochemical, E. coli; details: 6xHis-ACP 0.4 μM, 6xHis-ACPS 0.4 μM, CoA-L 2 μM, CoA 0-80 μM; fit I=A/(1+Bx) of Western blot intensities
T2 sequence (P24224 1-126): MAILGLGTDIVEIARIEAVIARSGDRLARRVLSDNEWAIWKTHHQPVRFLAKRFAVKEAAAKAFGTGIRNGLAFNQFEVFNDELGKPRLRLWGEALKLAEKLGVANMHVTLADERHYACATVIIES
Procedure: (C) Competition assay between CoA and CoA-Bt or CoA-Dg as ACPS substrates: 6xHis-ACP (0.4 μM), 6xHis-ACPS (0.4 μM), CoA-Bt or CoA-Dg (2 μM) and varying concentrations of CoA (0-80 μM) are incubated for 30 min and the degree of labeling determined by Western blotting.
Purified 6xHis-AcpS (0.4 μM) is incubated at RT with either CoA-Bt or CoA-Dg (2 μM), variable amounts of CoA (0, 2, 4, 8, 12, 20, 40, 80 μM) and purified 6xHis-ACP-ha (0.4 μM) in 20 μl reaction buffer (50 mM Tris.Cl, pH 7.5, 10 mM MgCl2). After 25 minutes, each sample is quenched by addition of 20 μl of 2×SDS sample buffer and heated at 95° C. for 2 minutes. Labeled 6xHis-ACP-ha is detected by Western-blotting using either a streptavidin-horseradish peroxidase conjugate (dilution 1:12500) or an anti-digoxigenin antibody-horseradish peroxidase conjugate (dilution 1:500) and a chemiluminescent peroxidase substrate. Signal intensities at 0 μM CoA are arbitrary set to 1 for each experiment.

[2] = target: T3, ACP-NK1 receptor transiently expressed in HE293 cells (UniProt P0A6A8+P25103); assay: Co-staining of ACP-NK1 with CoA-Cy5 and SP-rho, reversal by unlabeled substance P; assay type: cell-based; details: CoA-Cy5 and SP-rho co-stained
T3 construct: FLAG tag (C); 6xHis tag (C); expressed in transfected cells; host or cells: HEK293 (transient, pCEP4 vector)
T3 sequence (P0A6A8+P25103 fused): as the sequence (P0A6A8+P25103 fused, one chain of several) above
Procedure: For the transient expression of ACP-NK1, the signal sequence of the 5-HT3-receptor (Sig5HT3) is fused to the N terminus of ACP via a short DYV linker and NK1 is fused to the C terminus of ACP via a short TS linker. In the resulting construct, a FLAG tag and a 6xHis tag is also attached to the C terminus of NK1. The corresponding gene of the fusion protein is inserted into the NheI and BamHI sites of the vector pCEP4 (Invitrogen). HEK293 cells are grown in DMEM/F2 (Dulbecco's modified Eagle medium, GIBCO BRL) supplemented with […] fetal calf serum (GIBCO, BRL). Transient transfection is performed as described (Nat Biotechnol 21, 86-89 (2003)) and the HEK293 cells are co-transfected with vectors expressing ACP-NK1 and a nuclear targeted EGEP (EGFP-NLS3). […] The cells are then washed three times with PBS to remove any excess substrate and directly analyzed by laser-scanning confocal fluorescence microscopy when labeled with Cy3 or Cy5. […] Laser-scanning confocal micographs are recorded using a 488 nm argon/krypton laser line; a 543 nm HeNe laser line or a 633 nm HeNe laser line on a Zeiss LSM 510 microscope (Carl Zeiss AG, Göttingen, Germany) with a 63× water (1.2 numerical aperture) objective. […] Fluorescence is analyzed in the channels sensitive to GFP and sensitive to the respective dye. […]

| SMILES | membrane labelling of transfected HEK293 cells [1] | biotinylation of 6xHis-ACP, specificity controls (6xHis-ACP) | ratio of the specificity constants (kcat/KM)CoA/(kcat/KM)CoA-L (6xHis-ACPS) | staining localisation in co-staining experiment [2] |
| --- | --- | --- | --- | --- |
| CC(C)(COP(=O)(O)OP(=O)(O)OC[C@H]1O[C@@H](n2cnc3c(N)ncnc32)C(O)[C@H]1OP(=O)(O)O)[C@@H](O)C(=O)NCCC(=O)NCCS[C@@H]1CC(=O)N(CCCCCC(=O)NNC(=O)CCCC[C@@H]2SC[C@@H]3NC(=O)N[C@@H]32)C1=O (stereo partly shown) [CoA-Bt] | clear membrane labelling | depends on the presence of all three components | 0.48 |  |
| CCN1/C(=C/C=C/C2=[N+](CCCCCC(=O)NCCN3C(=O)C[C@@H](SCCNC(=O)CCNC(=O)[C@H](O)C(C)(C)COP(=O)(O)OP(=O)(O)OC[C@H]4O[C@@H](n5cnc6c(N)ncnc65)C(O)[C@H]4OP(=O)(O)O)C3=O)c3ccc(S(=O)(=O)O)cc3C2(C)C)C(C)(C)c2cc(S(=O)(=O)[O-])ccc21 (stereo partly shown) [CoA-Cy3] | clear membrane labelling |  |  |  |
| CC(C)(COP(=O)(O)OP(=O)(O)OC[C@H]1O[C@@H](n2cnc3c(N)ncnc32)C(O)[C@H]1OP(=O)(O)O)[C@@H](O)C(=O)NCCC(=O)NCCSC1CC(=O)N(CCCCCC(=O)NNC(=O)CCC(=O)N[C@H]2CC[C@@]3(C)[C@H](CC[C@@H]4[C@H]3C[C@@H](O)[C@]3(C)[C@@H](C5=CC(=O)OC5)CC[C@]43O)C2)C1=O (stereo partly shown) [CoA-Dg] |  |  | 0.35 |  |
| CCN1/C(=C/C=C/C=C/C2=[N+](CCCCCC(=O)NCCN3C(=O)C[C@@H](SCCNC(=O)CCNC(=O)[C@H](O)C(C)(C)COP(=O)(O)OP(=O)(O)OC[C@H]4O[C@@H](n5cnc6c(N)ncnc65)C(O)[C@H]4OP(=O)(O)O)C3=O)c3ccc(S(=O)(=O)O)cc3C2(C)C)C(C)(C)c2cc(S(=O)(=O)[O-])ccc21 (stereo partly shown) [CoA-Cy5] | clear membrane labelling |  |  | stain exclusively the membrane area |
